{"source": "patent US9097673B2", "about": "“Processes and kits for determining multi-drug resistance of cells” (ENZO LIFE SCIENCES, INC., priority 2010, dated 2015)", "key": {"[1]": {"test_system": "HCT-8 cells", "assay": "Dye uptake flow cytometry MDR assay", "format": "cell-based, human", "parameters": "key: Kolmogorov-Smirnov D statistic comparing fluorescence distributions", "conditions": "HCT-8, dye uptake", "procedure": "(§1) Cells were grown on tissue culture dishes and on the day of assay were trypsinized and washed twice with warm (37° C.) phosphate-buffered saline (PBS). Post-wash, the cells were re-suspended in warm phenol red indicator-free medium at a density of 1×10^6/ml. For each detection set, sixteen tubes (5 samples in triplicates plus non-stained control for background fluorescence) in numbered tubes each containing 5×10^5/cells (0.5 ml) were prepared. […] After incubation for 5 min at 37° C., 0.25 ml of warm medium with Fluo-8™ AM probe (5 μM final concentration) or Rhod-4™ AM probe (2 μM final concentration) was added to each tube excluding non-stained control that receives plain medium and cells were incubated for 30 min at 37° C. and analyzed immediately by flow cytometry. In the second set of the tubes, the reaction was stopped by rapid centrifugation (1 min) at relatively low speed (200×g). After wash with ice-cold PBS and discarding the supernatant, cells were re-suspended in 0.5 ml of ice-cold medium and kept on ice until flow cytometry analysis. The third set of cells simply was spun down (1 min, 200×g) to remove the excess of the probe, resuspended in ice-cold medium and kept on ice until flow cytometry analysis.\n(§2) Flow cytometry experiments were performed using a FACS Calibur benchtop flow cytometer (BD Biosciences) equipped with a blue (488 nm) laser, and the signals were registered in the FITC (530/30 filter), PE (585/42 filter) and PerCP (670 LP filter) channels. Fluo-8™ dye fluorescence was measured in the FL1 channel, and Rhod-4™ dye fluorescence—in the FL2 channel. Flow cytometry data were analyzed by comparison of median fluorescence or using Kolmogorov-Smirnov statistics [Young, J Histochem Cytochem 25:935-941 (1977)] or by calculating MAF values (MDR Activity Factor) using the following formula: MAF=100*((MFIinh−MFI0)/MFIinh), where MFIinh and MFI0 are mean fluorescence intensity values measured in the presence and absence of inhibitor [Hollo et al., Biochem Piophys Acta. 1191:384-388 (1994)].\n(§3) Both human ileocecal colorectal carcinoma cell line HCT-8 (reported to over-express P-gp and, to a lesser extent, MRP [Hunter et al., Br J Cancer. 64:437-444 (1991); Collington et al., Biochem Pharmacol 44:417-424 (1992)] and hepatocellular carcinoma Hep G2 (reported to over-express MRP [Roelofsen et al., Gastroenterology 112:511-521 (1997), Cantz et al., Am J Physiol Gastrointest Liver Physiol. 278:G522-G531 (2000)] were obtained from ATCC. HCT-8 cells were routinely cultured in RPMI-1640 Medium with 2 mM L-glutamine, 10 mM HEPES, 1 mM sodium piruvate, 4.5 g/L glucose, 1.5 g/L sodium bicarbonate (ATCC), supplemented with 10% horse serum (ATCC) and 100 U/ml penicillin, 100 ug/ml streptomycin (Sigma-Aldrich, St. Louis, Mo.). Hep G2 cells were routinely cultured in Eagle's Minimum Essential Medium with low glucose (ATCC), supplemented with 10% heat inactivated fetal bovine serum (ATCC) and 100 U/ml penicillin, 100 ug/ml streptomycin (Sigma-Aldrich, St. Louis, Mo.). Cell cultures were maintained in a humidified incubator at 37° C., with 5% CO2 atmosphere. Stock solutions of the probes and inhibitors were prepared, as described in Examples 2 and 3. Cells were grown in tissue culture dishes and on the day of assay were treated according to a dye uptake protocol and analyzed by flow cytometry, as described in Example 3."}, "[2]": {"test_system": "Hep G2 cells", "assay": "Dye uptake flow cytometry MDR assay", "format": "cell-based, human", "parameters": "key: Kolmogorov-Smirnov D statistic comparing fluorescence distributions", "conditions": "HepG2, dye uptake", "procedure": "as §1, §2, §3"}, "[3]": {"test_system": "HeLa cell line", "assay": "Dye uptake flow cytometry MDR assay", "format": "cell-based, human", "conditions": "HeLa, dye uptake", "quoted_text": "Concentrations of the modulators used in the experiments were non-toxic to the cells (based upon standard 3-(4,5-Dimethylthiazol-2-Yl)-2,5-Diphenyltetrazolium Bromide (MTT) testing, data not shown). Fluo-8™ was used in all experiments at 5 μM, and Rhod-4™—at 4 μM final concentrations."}, "[4]": {"test_system": "CHO K1 cell line", "assay": "Dye efflux flow cytometry MDR assay", "format": "cell-based, hamster", "parameters": "key to D-value, Verapamil / D-value, Novobiocin: KS D value, 0 to 1; negative if control brighter than sample", "conditions": "for D-value, +4° C.: kept on ice without inhibitor", "excerpt": "Kolmogorov-Smirnov statistics measures the difference between two distribution functions and generates a D value ranging between 0 and 1.0, with higher values indicating a greater difference between the distribution functions. The D value generated by the KS statistics was modified by ascribing a negative value if the fluorescence of a negative control (no inhibitor) was brighter than the fluorescence of the sample with inhibitor. The method was one of those recommended by the First International MDR1 Methods Detection Workshop (St. Jude Children's Research Hospital, Memphis, Tenn.).\nCells were grown in tissue culture dishes and on the day of assay they were trypsinized and washed twice with ice-cold PBS. Post-wash, the cells were re-suspended in cold phenol red indicator-free medium at a density of 1×10^6/ml. For each detection set, eighteen tubes (6 tubes without inhibitor and 3 tubes for each inhibitor tested, in triplicates) each containing 2.5-5×10^5/cells were prepared. Cells were centrifuged at 200×g for 5 min, and after discarding supernatant, re-suspended at 1×10^6/ml in ice-cold indicator-free medium containing Fluo-8™ AM or Rhod-4™ AM probes. Additionally, an aliquot of non-stained cells was prepared for background fluorescence measurements. Cells were incubated with the probe(s) on ice for 60 min, than centrifuged at 200×g for 5 min. After discarding the supernatant, cells were either washed twice with PBS or simply were spun down to remove the excess of the probe and resuspended at 5×10^5 cells/sample in 0.5 ml of following solutions:\n1. warm (37° C.) indicator-free medium containing vehicle only (3 tubes)\n2. warm (37° C.) indicator-free medium containing inhibitor (3 tubes for each inhibitor tested)\n3. ice-cold indicator-free medium (3 tubes)\nTube sets 1 and 2 were immediately transferred to a water bath (37° C.) and incubated for 90 min. Tube set 3 was kept on ice. Post incubation, 4 ml of ice-cold indicator-free medium was added per tube, tubes were centrifuged at 200×g for 5 min, supernatant was discarded, and cell pellet was re-suspended in the cold indicator-free medium and centrifuged again. Finally, cells were re-suspended in 0.5 ml of cold indicator-free medium and maintained on ice until analysis. Alternatively, cells were analyzed without washing. Flow cytometry experiments were performed as described in Example 3."}, "[5]": {"conditions": "average of three representative experiments (Table 6)"}, "[6]": {"conditions": "representative experiment (Table 8)"}, "[7]": {"conditions": "CHO K1, dye efflux, representative experiment (Table 9)"}, "[8]": {"conditions": "Fluo-8 AM probe, dye efflux, CHO K1, No Wash"}, "[9]": {"conditions": "Fluo-8 AM probe, dye efflux, CHO K1, Wash"}}}
{"smiles": "CC(=O)OCOC(=O)CN(CC(=O)OCOC(C)=O)c1ccccc1OCCOc1cc(-c2c3ccc(=O)cc-3oc3cc(OCOC(C)=O)ccc23)ccc1N(CC(=O)OCOC(C)=O)CC(=O)OCOC(C)=O", "note": "[Fluo-8 ™ AM]", "values": [{"measurement": "D-value, CyclosporinA", "setting": "[1]", "result": 0.68}, {"measurement": "D-value, MK-571", "setting": "[1]", "result": 0.34}, {"measurement": "D-value, Novobiocin", "setting": "[1]", "result": 0.22}, {"measurement": "D-value, Verapamil", "setting": "[1]", "result": 0.71}, {"measurement": "D-value, CyclosporinA", "setting": "[2]", "result": 0.28}, {"measurement": "D-value, MK-571", "setting": "[2]", "result": 0.34}, {"measurement": "D-value, Novobiocin", "setting": "[2]", "result": 0.13}, {"measurement": "D-value, Verapamil", "setting": "[2]", "result": 0}, {"measurement": "D-value, Fumitremorgan C", "setting": "[3]; [5]", "result": 0.15}, {"measurement": "D-value, Probenecid", "setting": "[3]; [5]", "result": 0}, {"measurement": "D-value, Verapamil", "setting": "[3]; [5]", "result": 0.10}, {"measurement": "D-value, Cyclosporine A", "setting": "[3]; [6]", "result": 0.14}, {"measurement": "D-value, Novobiocin", "setting": "[3]; [6]", "result": 0.09}, {"measurement": "D-value, Probenecid", "setting": "[3]; [6]", "result": 0.15}, {"measurement": "D-value, Verapamil", "setting": "[3]; [6]", "result": 0.04}, {"measurement": "D-value, 4° C.", "setting": "[4]; CHO K1, dye efflux, kept on ice without inhibitor (Table 9)", "result": 0.72}, {"measurement": "D-value, Cyclosporine A", "setting": "[4]; [7]", "result": 0.55}, {"measurement": "D-value, Novobiocin", "setting": "[4]; [7]", "result": 0.70}, {"measurement": "D-value, Probenecid", "setting": "[4]; [7]", "result": 0.30}, {"measurement": "D-value, Verapamil", "setting": "[4]; [7]", "result": 0.28}, {"measurement": "D-value, Cyclosporin A", "setting": "[4]; [8]", "result": 0.8}, {"measurement": "D-value, Novobiocin", "setting": "[4]; [8]", "result": 0.7}, {"measurement": "D-value, Probenecid", "setting": "[4]; [8]", "result": 0.19}, {"measurement": "D-value, Verapamil", "setting": "[4]; [8]", "result": 0.21}, {"measurement": "D-value, +4° C.", "setting": "[4]; [8]", "result": 0.78}, {"measurement": "D-value, Cyclosporin A", "setting": "[4]; [9]", "result": 0.62}, {"measurement": "D-value, Novobiocin", "setting": "[4]; [9]", "result": 0.79}, {"measurement": "D-value, Probenecid", "setting": "[4]; [9]", "result": 0.23}, {"measurement": "D-value, Verapamil", "setting": "[4]; [9]", "result": 0.34}, {"measurement": "D-value, +4° C.", "setting": "[4]; [9]", "result": 0.76}]}
